This is an account of results in paper PMC3625656 (Physical biology, 2012).

In experiment [1] the target is APP-C peptide of the affinity measurement (15 aa; human or squid sequence not told). Kind of experiment: pull-down.
The test system of a further experiment is squid giant axon. Briefly: Axonal transport of injected fluorescent bead cargo, confocal time-lapse. The experiment is classed as cell-based, North Atlantic Long-Finned Squid (Loligo pealleii).

In experiment [1], “kinesin-1 of rat brain extract (from UniProt Q2PQA9 1-963) (complex)” came in with a Kd of 4.7 nM.
Consider GYENPTYKFFEQMQN [hAPP-C], for which, in the experiment on squid giant axon (calculated as v1/k1), the Run length is on record as 11.5 μm. Further, in the experiment on squid giant axon (from average run time, Poisson distribution, run v1 > 0.1 μm s^−1, about 40 runs), the “Detachment rate k1” value stood at 0.0322 s⁻¹.
